Measurements taken from patent publication US6420570B1, “Psoralen compounds” (priority 1993, dated 2002).
Where a name gives a salt, the structure may show the parent alone. Read-outs that look alike come from different tables or passages of the source.

What was measured:
TA1538 = assay: Ames assay, dark mutagenicity, strain TA1538
Method: (§1) In this example the compounds of the present invention are tested for their dark mutagenicity using an Ames assay. The procedures used for the Salmonella mutagenicity test as described in detail by Maron and Ames were followed exactly. Maron, D. M. and B. N. Ames, Mutation Research 113:173 (1983). A brief description for each procedure is given here. The tester strains TA97a, TA98, TA100, TA102, TA1537 and TA1538 were obtained from Dr. Ames. TA97a, TA98, TA1537 and TA1538 are frameshift tester strains. TA100 and TA102 are base-substitution tester strains. Upon receipt each strain was cultured under a variety of conditions to confirm the genotypes specific to the strains.
(§2) The first tests done with the strains were to determine the range of spontaneous reversion for each of the strains. With each mutagenicity experiment the spontaneous reversion of the tester strains to histidine independence was measured and expressed as the number of spontaneous revertants per plate. This served as the background controls.
(§3) For all experiments, the pre-incubation procedure was used. In this procedure one vial of each tester strain was thawed and 20 μL of this culture was added to 6 mL of Oxoid Nutrient Broth #2. This solution was allowed to shake for 10 hours at 37° C. In the pre-incubation procedure, 0.1 mL of this overnight culture was added to each of the required number of sterile test tubes. To half of the tubes 0.5 mL of a 10% S-9 solution containing Aroclor 1254 induced rat liver extract (Molecular Toxicology Inc., Annapolis, MD), and MgCl2, KCl, glucose-6-phosphate, NADP, and sodium phosphate buffer (Sigma, St. Louis. Mo.) were added. To the other half of the tubes 0.5 mL of 0.2M sodium phospate buffer, pH 7.4, was used in place of the S-9 mixture (the -S9 samples) Finally 0.1 mL of the test solution containing either 0.0.1, 0.5, 1, 5, 10, 50, 100, 250, or 500 μg/mL of the test compound was added. The 0.7 mL mixture pre-incubated while shaking for 20 minutes at 37° C. After shaking, 2 mL of molten top agar supplemented with histidine and biotin were added to the 0.7 mL mixture and immediately poured onto a minimal glucose agar plate (volume of base agar was 20 ml.). The top agar was allowed 30 minutes to solidify and then the plates were inverted and incubated for 44 hours at 37° C. After incubation the number of revertant colonies on each plate were counted. […] (“n” represents the number of replicates performed for each data point.)
(§4) Maron and Ames (1983) describe the conflicting views with regard to the statistical treatment of data generated from the test.

TA1537 = assay: Ames assay, dark mutagenicity, strain TA1537
Method: as §1, §2, §3, §4

[1] = test system: Salmonella tester strains; assay: Ames assay, dark mutagenicity, overall over tester strains; settings: base-substitution tester strains TA100 and TA102
Method: as §1, §2, §3, §4

R17 [2] = assay: R17 bacteriophage inactivation screen, varying compound concentration; type: cell-based; settings: starting titer approx. 7.1 logs
Method: The assay used to predict pathogen inactivation efficiency and to determine nucleic acid binding of the photoreactive binding compounds of the present invention was that in which a bacteriophage, R17, in solution with the desired substrate was irradiated. The ability of the phage to subsequently infect bacteria and inhibit their growth was measured. The bacteriophage was selected for its relatively accessible nucleic acid such that the culture growth inhibition would accurately reflect nucleic acid damage by the test compounds. The bacteriophage assay for nucleic acid binding to test compounds offers a safe and inexpensive procedure to identify compounds likely to display efficient pathogen inactivation. […] An aliquot (0.5 mL) was transferred to a 1.5 mL, snap-top polyethylene tube. An aliquot (0.004-0.040 mL) of the test compound stock solution prepared in water, ethanol or dimethylsulfoxide at 0.80-8.0 mM was added to the tube. Compounds were tested at concentrations between 4 μM and 320 μM. (AMT is commercially available from HRI, Inc., Concord, Calif.; 8-MOP is commercially available from Sigma, St. Louis, Mo.). The tubes were placed in a light device as described in EXAMPLE 1 and irradiated for between 1 and 10 minutes. […] To make the dilutions, a 0.100 mL aliquot of the irradiated solution of phage and test compound was added to the first dilution tube of 0.4 mL of media then 0.020 mL of this solution was added to the second tube of 0.5 mL medium (1:25). The second solution was then diluted serially (1:25) into the remaining tubes. […] After the top agar hardened, the plates were incubated at 37° C. overnight. The plaque forming units were then counted the following morning and the titer of the phage remaining after phototreatment was calculated based on the dilution factors. The following controls were run: the “phage only” in which phage was not treated with test compound and not irradiated (listed as “starting titer” in the tables below); the “UV only” in which the phage was irradiated in the absence of test compound; and the “dark” control in which the phage/test compound solution was not irradiated before it was diluted and plated.

cell-free virus (HIV) = type: cell-based; settings: 1 minute irradiation
Method: Pathogen inactivation efficiency of several compounds of the present invention was evaluated by examining the ability of the compounds to inactivate cell-free virus (HIV). Inactivation of cell-free HIV was performed as follows.
As in the R17 assay, small aliquots of the compounds listed in TABLES 8 and 9, below, at the concentrations listed in the table, were added to stock HIV-1 to a total of 0.5 mL. The stock HIV (10^5-10^7 plaque forming units/mL) was in DMEM/15% FBS. […] Controls included HIV-1 stock only, HIV-1 plus UVA only, and HIV-1 plus the highest concentration of each psoralen tested, with no UVA. Post irradiation, all samples were stores frozen at −70° C. until assayed for infectivity by a microtiter plaque assay. Aliquots for measurement of residual HIV infectivity in the samples treated with a compound of the present invention were withdrawn and cultured.
Residual HIV infectivity was assayed using an MT-2 infectivity assay. […] The assay medium was 85% DMEM (with a high glucose concentration) containing 100 μg of streptomycin, 100 U of penicillin, 50 μg of gentamicin, and 1 μg of amphotericin B per mL, 15% FBS and 2 μg of Polybrene (Sigma Chemical Co., St. Louis, Mo.) per mL. Test and control samples from the inactivation procedure were diluted in 50% assay medium and 50% normal human pooled plasma. The samples were serially diluted directly in 96-well plates (Corning Glass Works, corning, N.Y.). The plates were mixed on an oscillatory shaker for 30 seconds and incubated at 37° C. in a 5% CO2 atmosphere for 1 to 18 hours. […] After an additional 1 hour of incubation at 37° C. in 5% CO2, 0.075 mL of assay medium containing 1.6% SeaPlaque agarose (FMC Bioproducts, Rockland, me.) and prewarmed to 38.5° C. was added to each well. The plates were kept at 37° C. for a few minutes until several plates had accumulated and then centrifuged in plate carriers at 600×g for 20 minutes in a centrifuge precooled to 10° C. In the centrifuge, cell monolayers formed prior to gelling of the agarose layer. The plates were incubated for 5 days at 37° C. in 5% CO2 and stained by the addition of 0.05 mL of 50 μg/mL propidium iodide (Sigma Chemical Co.) in phosphate-buffered saline (pH 7.4) to each well. After 24 to 48 hours, the red fluorescence-stained microplaques were visualized by placing the plates on an 8,000 μW/cm^2 304 nm UV light box (Fotodyne, Inc., New Berlin, Wis.). The plaques were counted at a magnification of ×20 to ×25 through a stereomicroscope. “n” represents the number of runs for which the data point is an average.

R17 [3] = assay: R17 inactivation at constant concentration, varying doses of UV light; type: cell-based, bacteriophage R17; settings: UV doses 1.0 to 3.0 J/cm^2, FIGS. 11-17
Method: Compounds of the present invention were also tested at a constant concentration for varying doses of UV light. Three sets of 1.5 mL tubes were prepared containing 0.6 mL aliquots of R17 in DMEM (prepared as described above). The compound tested was added at the desired concentration and the samples were vortexed. The samples were then irradiated at intervals of 1.0 J/cm^2, until 3.0 J/cm^2 was reached. Between each 1.0 J/cm^2 interval, 100 μL was removed from each sample and placed in the first corresponding dilution tube, then five sequential dilutions were performed for each compound tested, at all 3 irradiation doses, as described above in this example.
Then 50 μL of Hfr 3000 bacteria was added to each tube, 3 mL of top agar was added and the tube contents were vortexed. The contents of each tube was poured into its own LB plate and the plates were incubated overnight at 37° C. Plaques were counted by visual inspection the following morning.

TA100 = test system: TA100
Method: as §1, §2, §3, §4

[4] = Table 8, HIV starting titer approximately 5 logs
[5] = Table 9, HIV starting titer approximately 5.4 logs

Cc1oc2c(C)c3oc(=O)cc(C)c3cc2c1CNCCCCN [Compound 6, 4′-(6-Aminohexyl-2-aza)-4,5′,8-trimethylpsoralen Dihydrochloride]
revertant colonies per plate (TA1538; TA1538 +S9, 5 μg/plate): 0 | revertant colonies per plate (TA1538; TA1538 +S9, 10 μg/plate): 8 | revertant colonies per plate (TA1538; TA1538 −S9, 5 μg/plate): −5 | revertant colonies per plate (TA1537; TA1537 +S9, 10 μg/plate): −1 | revertant colonies per plate (TA1537; TA1537 +S9, 50 μg/plate): 17 | revertant colonies per plate (TA1537; TA1537 +S9, 250 μg/plate): 99 | revertant colonies per plate (TA1537; TA1537 +S9, 500 μg/plate): 369 | dose showing a response (TA1537; TA1537, in the presence of S9): 50 μg/plate | revertant colonies per plate (TA1537; TA1537 −S9, 10 μg/plate): 141 | revertant colonies per plate (TA1537; TA1537 −S9, 50 μg/plate): 2010 | revertant colonies per plate (TA1537; TA1537 −S9, 100 μg/plate): 795 | revertant colonies per plate (TA1537; TA1537 −S9, 250 μg/plate): 228 | revertant colonies per plate (TA1537; TA1537 −S9, 500 μg/plate): 43 | base-substitution mutagenicity [1]: no base substitution mutagenicity | R17 log kill 16 uM (R17 [2]; Table 6, 1 minute irradiation = 1.2 J/cm^2): >6.1 log | R17 log kill 32 uM (R17 [2]; Table 6, 32 uM, 1 minute irradiation = 1.2 J/cm^2): >6.1 log | R17 log kill 64 uM (R17 [2]; Table 6, 64 uM, 1 minute irradiation = 1.2 J/cm^2): >6.1 log | R17 log kill 8 uM (R17 [2]; Table 7, 8 uM, 1 minute irradiation): >6 log | R17 log kill 16 uM (R17 [2]; Table 7, 1 minute irradiation): >6 log | HIV Log Kill 16 μM (cell-free virus (HIV); [4]): 2.0 log | HIV Log Kill 32 μM (cell-free virus (HIV); [4]): 3.1 log | HIV Log Kill 64 μM (cell-free virus (HIV); [4]): >3.8 log | HIV Log Kill 16 μM (cell-free virus (HIV); [5]): 2.1 log | HIV Log Kill 32 μM (cell-free virus (HIV); [5]): 3.2 log | HIV Log Kill 64 μM (cell-free virus (HIV); [5]): >2.8 log | R17 inactivation compared with AMT (R17 [3]): more efficient at inactivating R17 than was AMT | revertant colonies per plate (TA100; TA100 +S9, 5 μg/plate): 12 | revertant colonies per plate (TA100; TA100 +S9, 10 μg/plate): −5 | revertant colonies per plate (TA100; TA100 −S9, 5 μg/plate): −32 | revertant colonies per plate (TA100; TA100 −S9, 10 μg/plate): 3
